Here are results for 14 compounds from US9670227B2, “Thienopyrimidine derivatives, a process for their preparation and pharmaceutical compositions containing them” (LES LABORATOIRES SERVIER, priority 2013, dated 2017).

In experiment [1] the test system is H929 multiple myeloma tumour line. The experiment can be described thus: In vitro cytotoxicity, Microculture Tetrazolium Assay. The experiment is classed as cell-based. The settings on record: H929 cells, 48 hours exposure, read-out: IC50 (μM) MTT H929. On the procedure: The cytotoxicity studies were carried out on the H929 multiple myeloma tumour line.
The cells are distributed onto microplates and exposed to the test compounds for 48 hours.

Experiment [2] has as its target Mcl-1 protein (UniProtKB primary accession number: Q07820) (Homo sapiens, UniProt Q07820). The experiment can be described thus: Inhibition of Mcl-1 by fluorescence polarisation, Method 1. In kind it is binding. The settings on record: read-out: IC50 (M) Mcl-1 FP. Put shortly: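 Buffer of 10 mM HEPES pH 7.4 with 150 mM NaCl and 0.05% Tween 20 held 5 nM Mcl-1 and 1 nM fluorescein-tagged ligand (final). Compounds were tested as 11-point serial dilutions at 5% final DMSO, and binding was read by FP.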

Setting [3] is: fluorescence polarisation test, Method 2 values are underlined in the patent (underlining not visible here).
Where [4] appears, read: Homo sapiens, NCI-H929, 48 h, MTT.
[5] abbreviates: fluorescence polarisation, Method 1, or Method 2.

Read-outs that look alike come from different tables or passages of the source.

Chain of Mcl-1 protein (Q07820 whole entry): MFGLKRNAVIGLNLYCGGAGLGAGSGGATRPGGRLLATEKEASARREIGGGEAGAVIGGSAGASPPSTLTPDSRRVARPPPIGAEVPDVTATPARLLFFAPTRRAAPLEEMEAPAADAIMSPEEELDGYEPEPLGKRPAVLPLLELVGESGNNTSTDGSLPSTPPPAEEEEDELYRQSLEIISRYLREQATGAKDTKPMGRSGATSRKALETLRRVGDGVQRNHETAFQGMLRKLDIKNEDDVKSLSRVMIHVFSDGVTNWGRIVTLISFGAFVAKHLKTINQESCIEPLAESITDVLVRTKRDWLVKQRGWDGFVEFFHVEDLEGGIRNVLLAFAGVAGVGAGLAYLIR

`Cc1c(-c2c(-c3ccc(Cl)o3)sc3ncnc(OC(Cc4ccccc4OCC4CCCO4)C(=O)O)c23)ccc(OCCN2CCN(C)CC2)c1Cl` [Example 377, (2R)-2-{[6-(5-chlorofuran-2-yl)-(5Sa)-5-{3-chloro-2-methyl-4-[2-(4-methylpiperazin-1-yl)ethoxy]phenyl}thieno[2,3-d]pyrimidin-4-yl]oxy}-3-{2-[(2S)-tetrahydrofuran-2-ylmethoxy]phenyl}propanoic acid]: the IC50 came to 0.047 µM in experiment [1] (MTT) and 3.8e-09 M in experiment [2] (setting [3]).

With `Cc1c(-c2c(-c3ccc(F)cc3)sc3ncnc(OC(Cc4ccccc4OCc4cnccn4)C(=O)O)c23)ccc(OCCN(C)C)c1Cl` [Example 134, (2R)-2-{[(5Sa)-5-{3-chloro-4-[2-(dimethylamino)ethoxy]-2-methylphenyl}-6-(4-fluorophenyl)thieno[2,3-d]pyrimidin-4-yl]oxy}-3-[2-(pyrazin-2-ylmethoxy)phenyl]propanoic acid], the half-inhibitory concentration (IC50) in experiment [1] (setting [4]) stood at 0.193 µM; in experiment [2] (setting [3]), 1.3e-08 M.

As to `CCc1sc2ncnc(OC(Cc3cccc4c3OCO4)C(=O)O)c2c1-c1ccc(OCCN2CCN(C)CC2)c(Cl)c1C` [Example 460, (2R)-3-(1,3-benzodioxol-4-yl)-2-[((5Sa)-5-{3-chloro-2-methyl-4-[2-(4-methylpiperazin-1-yl)ethoxy]phenyl}-6-ethylthieno[2,3-d]pyrimidin-4-yl)oxy]propanoic acid], the IC50 in experiment [1] (setting [4]) was 6.82 µM; in experiment [2] (setting [5]), 1.3e-07 M.

For `COc1cc(COc2ccccc2CC(Oc2ncnc3sc(-c4ccc(F)cc4)c(-c4ccc(OCCN5CCN(C)CC5)c(Cl)c4C)c23)C(=O)O)nc(-c2ccccc2)n1` [Example 7, (2R)-2-{[(5Sa)-5-{3-chloro-2-methyl-4-[2-(4-methylpiperazin-1-yl)ethoxy]phenyl}-6-(4-fluorophenyl)thieno[2,3-d]pyrimidin-4-yl]oxy}-3-{2-[(6-methoxy-2-phenylpyrimidin-4-yl)methoxy]phenyl}propanoic acid], the IC50 was 0.066 µM in experiment [1] (setting [4]) and 8.6e-09 M in experiment [2] (setting [3]).

For the compound `Cc1c(-c2c(-c3ccco3)sc3ncnc(OC(Cc4ccccc4OCC(F)(F)F)C(=O)O)c23)ccc(OCCN2CCN(C)CC2)c1Cl` [Example 221, (2R)-2-{[(5Sa)-5-{3-chloro-2-methyl-4-[2-(4-methylpiperazin-1-yl)ethoxy]phenyl}-6-(furan-2-yl)thieno[2,3-d]pyrimidin-4-yl]oxy}-3-[2-(2,2,2-trifluoroethoxy)phenyl]propanoic acid], the figures for the IC50 in experiment [1] (setting [4]) and in experiment [2] (setting [3]) were 0.059 µM and 6.3e-09 M, respectively.

Take `Cc1c(-c2c(-c3ccc(F)cc3)sc3ncnc(OC(Cc4ccccc4OCc4ccnc(-c5ccccc5CO)n4)C(=O)O)c23)ccc(OCCN(C)C)c1Cl` [Example 832, (2R)-2-{[(5Sa)-5-{3-chloro-4-[2-(dimethylamino)ethoxy]-2-methylphenyl}-6-(4-fluorophenyl)thieno[2,3-d]pyrimidin-4-yl]oxy}-3-[2-({2-[2-(hydroxymethyl)phenyl]pyrimidin-4-yl}methoxy)phenyl]propanoic acid]: the half-inhibitory concentration (IC50) in experiment [1] (Homo sapiens, NCI-H929, 48 h, cell viability) is 0.004 µM; in experiment [2] (fluorescence polarisation test, Method 1, or Method 2 where the value is underlined (underlining not visible)), 3.15e-09 M.

As to `CCc1sc2ncnc(OC(Cc3ccccc3)C(=O)O)c2c1-c1ccc(OCCN(CCO)CCO)c(Cl)c1C` [Example 412, (2R)-2-{[(5Sa)-5-(4-{2-[bis(2-hydroxyethyl)amino]ethoxy}-3-chloro-2-methylphenyl)-6-ethylthieno[2,3-d]pyrimidin-4-yl]oxy}-3-phenylpropanoic acid], the half-maximal inhibitory concentration (IC50) came to 28.7 µM in experiment [1] (setting [4]) and 5.1e-08 M in experiment [2] (setting [5]).

On to `CCOCCn1nccc1COc1ccccc1CC(Oc1ncnc2sc(-c3ccc(F)cc3)c(-c3ccc(OCCN4CCN(C)CC4)c(Cl)c3C)c12)C(=O)O` [Example 89, (2R)-2-{[(5Sa)-5-{3-chloro-2-methyl-4-[2-(4-methylpiperazin-1-yl)ethoxy]phenyl}-6-(4-fluorophenyl)thieno[2,3-d]pyrimidin-4-yl]oxy}-3-(2-{[1-(2-ethoxyethyl)-1H-pyrazol-5-yl]methoxy}phenyl)propanoic acid], for which the IC50 in experiment [1] (setting [4]) amounted to 0.027 µM; in experiment [2] (setting [3]), 6.5e-09 M.

In the case of `COc1ccccc1CC(Oc1ncnc2sc(-c3cc4sccc4s3)c(-c3ccc(OCCN4CCN(C)CC4)c(Cl)c3C)c12)C(=O)O` [Example 530, (2R)-2-{[(5Sa)-5-{3-chloro-2-methyl-4-[2-(4-methylpiperazin-1-yl)ethoxy]phenyl}-6-(thieno[3,2-b]thiophen-2-yl)thieno[2,3-d]pyrimidin-4-yl]oxy}-3-(2-methoxyphenyl)propanoic acid], the IC50 in experiment [1] (setting [4]) is 1.59 µM; in experiment [2] (setting [5]) it was 1.2e-07 M.

Consider `COc1c(C)cccc1CC(Oc1ncnc2sc(-c3ccco3)c(-c3ccc(OCCN4CCN(C)CC4)c(Cl)c3C)c12)C(=O)O` [Example 351, (2R)-2-{[(5Sa)-5-{3-chloro-2-methyl-4-[2-(4-methylpiperazin-1-yl)ethoxy]phenyl}-6-(furan-2-yl)thieno[2,3-d]pyrimidin-4-yl]oxy}-3-(2-methoxy-3-methylphenyl)propanoic acid], for which the IC50 in experiment [1] (setting [4]) was determined as 0.526 µM; in experiment [2] (setting [3]) it was 1.5e-08 M.

On to `COCC#Cc1sc2ncnc(OC(Cc3ccccc3OCc3ccnc(-c4ccccc4OC)n3)C(=O)O)c2c1-c1ccc(OCCN2CCN(C)CC2)c(Cl)c1C` [Example 784, (2R)-2-{[(5Sa)-5-{3-chloro-2-methyl-4-[2-(4-methylpiperazin-1-yl)ethoxy]phenyl}-6-(3-methoxyprop-1-yn-1-yl)thieno[2,3-d]pyrimidin-4-yl]oxy}-3-(2-{[2-(2-methoxyphenyl)pyrimidin-4-yl]methoxy}phenyl)propanoic acid], for which the figures for the IC50 in experiment [1] (setting [4]) and in experiment [2] (setting [5]) were 0.023 µM and 9.48e-10 M, respectively.

For the compound `Cc1c(-c2c(-c3ccco3)sc3ncnc(OC(Cc4ccccc4OCc4cscn4)C(=O)O)c23)ccc(OCCN2CCN(C)CC2)c1Cl` [Example 281, (2R)-2-{[(5Sa)-5-{3-chloro-2-methyl-4-[2-(4-methylpiperazin-1-yl)ethoxy]phenyl}-6-(furan-2-yl)thieno[2,3-d]pyrimidin-4-yl]oxy}-3-[2-(1,3-thiazol-4-ylmethoxy)phenyl]propanoic acid], the half-inhibitory concentration (IC50) in experiment [1] (setting [4]) stood at 0.081 µM; in experiment [2] (setting [3]) it was 7.9e-09 M.

On to `COCCN1CCC(COc2ccc(-c3c(-c4ccco4)sc4ncnc(OC(Cc5ccccc5OC)C(=O)O)c34)c(C)c2Cl)C1` [Example 312, (2R)-2-{[(5Sa)-5-(3-chloro-4-{[1-(2-methoxyethyl)pyrrolidin-3-yl]methoxy}-2-methylphenyl)-6-(furan-2-yl)thieno[2,3-d]pyrimidin-4-yl]oxy}-3-(2-methoxyphenyl)propanoic acid], for which the values for the IC50 in experiment [1] (setting [4]) and in experiment [2] (setting [3]) were 1 µM and 8.9e-09 M, respectively.

For the compound `COCCn1nccc1COc1ccccc1CC(Oc1ncnc2sc(-c3ccc(F)cc3)c(-c3ccc(OCCN4CCN(C)CC4)c(Cl)c3C)c12)C(=O)O` [Example 88, (2R)-2-{[(5Sa)-5-{3-chloro-2-methyl-4-[2-(4-methylpiperazin-1-yl)ethoxy]phenyl}-6-(4-fluorophenyl)thieno[2,3-d]pyrimidin-4-yl]oxy}-3-(2-{[1-(2-methoxyethyl)-1H-pyrazol-5-yl]methoxy}phenyl)propanoic acid], the IC50 in experiment [1] (setting [4]) amounted to 0.062 µM; in experiment [2] (setting [3]) it was 4.2e-09 M.
